In patent US8975398B2, “NAMPT inhibitors” (AbbVie Inc., priority 2012, dated 2015) one finds IC50 data, which are given here for 28 molecules.

Experiment [1] deals with NAMPT (human, recombinant, C-terminally His-tagged) (Homo sapiens, UniProt P43490). The experiment is described as follows: Time-Resolved Fluorescence Resonance Energy Transfer (TR-FRET) Binding Assay of NAMPT. The note with it: 6.8 nM NAMPT, 200 nM probe, equilibrated 3 hours, absence of substrates. In a few lines:
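Probe displacement measured by TR-FRET (Ex 337 nm; 520/495 nm ratio) after 3 h room-temperature equilibration of compound with 6.8 nM His-tagged human NAMPT, 1 nM Tb-anti-His antibody and 200 nM Oregon Green 488 nicotinamide-site probe, pH 7.5 HEPES buffer, 2% DMSO. Control-normalized data fit four-parameter logistic for IC50.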
On the technique in general: TR-FRET usually uses a lanthanide donor and a delayed reading to cut background.

For a further experiment, the target named is NAMPT (Homo sapiens, UniProt P43490). Put plainly: Time-Resolved Fluorescence Resonance Energy Transfer (TR-FRET) Binding Assay of NAMPT with PRPP. The note with it: 2 nM NAMPT, 2 nM probe, 200 uM PRPP and 2.5 mM ATP, equilibrated 16 hours. A digest of the protocol: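 Binding measured by TR-FRET after a 16-hour equilibration meant to permit enzymatic compound modification. Substrates present at 200 uM PRPP and 2.5 mM ATP, with 2 nM enzyme, 2 nM probe, 1 nM Tb-anti-His antibody and 2% DMSO final.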
NAMPT, sequence (P43490 whole entry): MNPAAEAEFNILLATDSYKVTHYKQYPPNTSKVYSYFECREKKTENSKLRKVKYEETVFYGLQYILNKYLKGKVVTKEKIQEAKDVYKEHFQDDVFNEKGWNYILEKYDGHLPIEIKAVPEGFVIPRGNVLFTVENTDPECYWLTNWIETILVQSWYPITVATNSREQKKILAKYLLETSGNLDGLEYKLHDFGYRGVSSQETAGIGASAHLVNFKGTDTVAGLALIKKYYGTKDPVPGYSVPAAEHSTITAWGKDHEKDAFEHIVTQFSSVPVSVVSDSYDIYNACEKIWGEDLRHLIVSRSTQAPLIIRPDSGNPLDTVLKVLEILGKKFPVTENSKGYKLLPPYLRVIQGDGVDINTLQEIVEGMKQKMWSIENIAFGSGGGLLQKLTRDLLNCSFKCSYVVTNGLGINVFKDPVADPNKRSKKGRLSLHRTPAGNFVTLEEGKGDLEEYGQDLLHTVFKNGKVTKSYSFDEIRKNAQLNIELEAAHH

NAMPT (human, recombinant, C-terminally His-tagged), sequence (P43490 whole entry): as above

As for `O=C(Nc1ccc(OC2CCN(C(=O)C3CCC(F)(F)CC3)CC2)cc1)C1CN(c2ccnnc2)C1` [Example 270, N-[4-({1-[(4,4-difluorocyclohexyl)carbonyl]piperidin-4-yl}oxy)phenyl]-1-(pyridazin-4-yl)azetidine-3-carboxamide], the IC50 amounted to 74.8 nM in experiment [1] and 35.7 nM at NAMPT.
For `O=C(Nc1ccc(OC2CCN(C(=O)c3ccc(F)cc3)CC2)cc1)C1CN(c2ccnnc2)C1` [Example 271, N-(4-{[1-(4-fluorobenzoyl)piperidin-4-yl]oxy}phenyl)-1-(pyridazin-4-yl)azetidine-3-carboxamide] the same measures were 78 nM and 25.2 nM.
In the same order, the values of `O=C(Nc1ccc(OC2CCN(C(=O)c3cscn3)CC2)cc1)C1CN(c2ccnnc2)C1` [Example 272, 1-(pyridazin-4-yl)-N-(4-{[1-(1,3-thiazol-4-ylcarbonyl)piperidin-4-yl]oxy}phenyl)azetidine-3-carboxamide] are 165 nM and 52.4 nM.
In the same order, the values of `O=C(Nc1ccc(OC2CCN(C(=O)Cc3ccc(C(F)(F)F)cc3)CC2)cc1)C1CN(c2ccnnc2)C1` [Example 273, 1-(pyridazin-4-yl)-N-{4-[(1-{[4-(trifluoromethyl)phenyl]acetyl}piperidin-4-yl)oxy]phenyl}azetidine-3-carboxamide] are 128 nM and 42.1 nM.
Consider `O=C(Nc1ccc(OC2CCN(C(=O)c3ccc(F)c(F)c3)CC2)cc1)C1CN(c2ccnnc2)C1` [Example 274, N-(4-{[1-(3,4-difluorobenzoyl)piperidin-4-yl]oxy}phenyl)-1-(pyridazin-4-yl)azetidine-3-carboxamide], for which the IC50 in experiment [1] amounted to 152 nM; on NAMPT, 64.5 nM.
In the same order, the values of `O=C(Nc1ccc(OC2CCN(C(=O)Cc3ccc(OC(F)(F)F)cc3)CC2)cc1)C1CN(c2ccnnc2)C1` [Example 275, 1-(pyridazin-4-yl)-N-{4-[(1-{[4-(trifluoromethoxy)phenyl]acetyl}piperidin-4-yl)oxy]phenyl}azetidine-3-carboxamide] are 231 nM and 45.1 nM.
For `O=C(Nc1ccc(OC2CCN(C(=O)Cc3ccc(F)cc3)CC2)cc1)C1CN(c2ccnnc2)C1` [Example 276, N-[4-({1-[(4-fluorophenyl)acetyl]piperidin-4-yl}oxy)phenyl]-1-(pyridazin-4-yl)azetidine-3-carboxamide] the same measures were 134 nM and 34.9 nM.
Turning to `O=C(Nc1ccc(OC2CCN(C(=O)Cc3ccc(F)cc3F)CC2)cc1)C1CN(c2ccnnc2)C1` [Example 277, N-[4-({1-[(2,4-difluorophenyl)acetyl]piperidin-4-yl}oxy)phenyl]-1-(pyridazin-4-yl)azetidine-3-carboxamide], the results for the IC50 (in experiment [1]; at NAMPT) were 62.4 nM and 26.7 nM, respectively.
For `O=C(Nc1ccc(OC2CCN(C(=O)c3ccsc3)CC2)cc1)C1CN(c2ccnnc2)C1` [Example 278, 1-(pyridazin-4-yl)-N-(4-{[1-(thiophen-3-ylcarbonyl)piperidin-4-yl]oxy}phenyl)azetidine-3-carboxamide] the same measures were 75.8 nM and 33.4 nM.
In the same order, the values of `O=C(Nc1ccc(OC2CCN(C(=O)c3ccccc3Cl)CC2)cc1)C1CN(c2ccnnc2)C1` [Example 279, N-(4-{[1-(2-chlorobenzoyl)piperidin-4-yl]oxy}phenyl)-1-(pyridazin-4-yl)azetidine-3-carboxamide] are 20.2 nM and 15.5 nM.
For `CC(C)(C)C(=O)N1CCC(Oc2ccc(NC(=O)C3CN(c4ccnnc4)C3)cc2)CC1` [Example 280, N-(4-{[1-(2,2-dimethylpropanoyl)piperidin-4-yl]oxy}phenyl)-1-(pyridazin-4-yl)azetidine-3-carboxamide] the same measures were 123 nM and 51.9 nM.
Turning to `CC(C)(C(=O)N1CCC(Oc2ccc(NC(=O)C3CN(c4ccnnc4)C3)cc2)CC1)c1ccccc1` [Example 281, N-(4-{[1-(2-methyl-2-phenylpropanoyl)piperidin-4-yl]oxy}phenyl)-1-(pyridazin-4-yl)azetidine-3-carboxamide], the figures for the IC50 (in experiment [1]; at NAMPT) were 20.5 nM and 14.9 nM, respectively.
Consider `CC(=O)N1CCC(Oc2ccc(NC(=O)C3CN(c4ccnnc4)C3)cc2)CC1` [Example 282, N-{4-[(1-acetylpiperidin-4-yl)oxy]phenyl}-1-(pyridazin-4-yl)azetidine-3-carboxamide], for which the IC50 in experiment [1] is 383 nM; on NAMPT, 90 nM.
For `O=C(Nc1ccc(OC2CCN(C(=O)c3nccs3)CC2)cc1)C1CN(c2ccnnc2)C1` [Example 283, 1-(pyridazin-4-yl)-N-(4-{[1-(1,3-thiazol-2-ylcarbonyl)piperidin-4-yl]oxy}phenyl)azetidine-3-carboxamide] the same measures were 72.3 nM and 32.2 nM.
In the same order, the values of `O=C(Nc1ccc(OC2CCN(C(=O)c3ccc(F)cc3F)CC2)cc1)C1CN(c2ccnnc2)C1` [Example 284, N-(4-{[1-(2,4-difluorobenzoyl)piperidin-4-yl]oxy}phenyl)-1-(pyridazin-4-yl)azetidine-3-carboxamide] are 62.4 nM and 38.2 nM.
For `O=C(Nc1ccc(OC2CCN(C(=O)c3cccc(C(F)(F)F)c3)CC2)cc1)C1CN(c2ccnnc2)C1` [Example 285, 1-(pyridazin-4-yl)-N-[4-({1-[3-(trifluoromethyl)benzoyl]piperidin-4-yl}oxy)phenyl]azetidine-3-carboxamide] the same measures were 149 nM and 86.2 nM.
For the molecule `O=C(Nc1ccc(OC2CCN(C(=O)c3cccc(F)c3)CC2)cc1)C1CN(c2ccnnc2)C1` [Example 286, N-(4-{[1-(3-fluorobenzoyl)piperidin-4-yl]oxy}phenyl)-1-(pyridazin-4-yl)azetidine-3-carboxamide], the IC50 in experiment [1] came to 127 nM; at NAMPT, 66.4 nM.
For the molecule `O=C(Nc1ccc(OC2CCN(C(=O)c3ccc(C(F)(F)F)cc3)CC2)cc1)C1CN(c2ccnnc2)C1` [Example 287, 1-(pyridazin-4-yl)-N-[4-({1-[4-(trifluoromethyl)benzoyl]piperidin-4-yl}oxy)phenyl]azetidine-3-carboxamide], the IC50 in experiment [1] is 125 nM; on NAMPT, 63.2 nM.
For `O=C(Nc1ccc(OC2CCN(C(=O)Cc3cccc(F)c3)CC2)cc1)C1CN(c2ccnnc2)C1` [Example 288, N-[4-({1-[(3-fluorophenyl)acetyl]piperidin-4-yl}oxy)phenyl]-1-(pyridazin-4-yl)azetidine-3-carboxamide], the IC50 in experiment [1] is 44.9 nM; on NAMPT, 19.5 nM.
For `O=C(Nc1ccc(OC2CCN(C(=O)c3ccccc3F)CC2)cc1)C1CN(c2ccnnc2)C1` [Example 289, N-(4-{[1-(2-fluorobenzoyl)piperidin-4-yl]oxy}phenyl)-1-(pyridazin-4-yl)azetidine-3-carboxamide] the same measures were 41.6 nM and 32.1 nM.
As to `O=C(Nc1ccc(OC2CCN(C(=O)c3ccc(OC(F)(F)F)cc3)CC2)cc1)C1CN(c2ccnnc2)C1` [Example 290, 1-(pyridazin-4-yl)-N-[4-({1-[4-(trifluoromethoxy)benzoyl]piperidin-4-yl}oxy)phenyl]azetidine-3-carboxamide], the IC50 was found to be 99.3 nM in experiment [1] and 45.7 nM on NAMPT.
For `O=C(Nc1ccc(OC2CCN(C(=O)Cc3cc(F)cc(F)c3)CC2)cc1)C1CN(c2ccnnc2)C1` [Example 291, N-[4-({1-[(3,5-difluorophenyl)acetyl]piperidin-4-yl}oxy)phenyl]-1-(pyridazin-4-yl)azetidine-3-carboxamide] the same measures were 45.6 nM and 18.2 nM.
`O=C(Nc1ccc(OC2CCN(C(=O)c3cccc(OC(F)(F)F)c3)CC2)cc1)C1CN(c2ccnnc2)C1` [Example 292, 1-(pyridazin-4-yl)-N-[4-({1-[3-(trifluoromethoxy)benzoyl]piperidin-4-yl}oxy)phenyl]azetidine-3-carboxamide]: the values for the IC50 (in experiment [1]; on NAMPT) were 99 nM and 64.7 nM, respectively.
For `O=C(Nc1ccc(OC2CCN(C(=O)CC3CC3)CC2)cc1)C1CN(c2ccnnc2)C1` [Example 293, N-(4-{[1-(cyclopropylacetyl)piperidin-4-yl]oxy}phenyl)-1-(pyridazin-4-yl)azetidine-3-carboxamide] the same measures were 78.2 nM and 25.3 nM.
For the molecule `CC(C)C(=O)N1CCC(Oc2ccc(NC(=O)C3CN(c4ccnnc4)C3)cc2)CC1` [Example 294, N-(4-{[1-(2-methylpropanoyl)piperidin-4-yl]oxy}phenyl)-1-(pyridazin-4-yl)azetidine-3-carboxamide], the concentration for half-maximal inhibition (IC50) in experiment [1] was 112 nM; at NAMPT, 55.1 nM.
As for `O=C(Nc1ccc(OC2CCN(C(=O)c3cccc(Cl)c3)CC2)cc1)C1CN(c2ccnnc2)C1` [Example 295, N-(4-{[1-(3-chlorobenzoyl)piperidin-4-yl]oxy}phenyl)-1-(pyridazin-4-yl)azetidine-3-carboxamide], the values for the IC50 (in experiment [1]; at NAMPT) were 77.6 nM and 51 nM, respectively.
In the same order, the values of `O=C(Nc1ccc(OC2CCN(C(=O)c3ccccn3)CC2)cc1)C1CN(c2ccnnc2)C1` [Example 296, 1-(pyridazin-4-yl)-N-(4-{[1-(pyridin-2-ylcarbonyl)piperidin-4-yl]oxy}phenyl)azetidine-3-carboxamide] are 149 nM and 57.1 nM.
For `O=C(Nc1ccc(OC2CCN(C(=O)c3ccc(Cl)cc3)CC2)cc1)C1CN(c2ccnnc2)C1` [Example 297, N-(4-{[1-(4-chlorobenzoyl)piperidin-4-yl]oxy}phenyl)-1-(pyridazin-4-yl)azetidine-3-carboxamide] the same measures were 104 nM and 47 nM.

By IC50 is commonly meant the concentration needed to halve the response being measured.
